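Where inhibition never reached the appropriate level, the endpoint shown equals the highest concentration tested. Otherwise, values were interpolated linearly from a five-concentration, 48-hour dose response in 96-well plates. GI50: concentration for 50% inhibition of growth. At the TGI there is no net growth.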
Experiments:
Assay in all cases: NCI anticancer screen, dose series, 48 h
[1] = system: SN12C renal
[2] = system: SK-MEL-2 melanoma
[3] = system: HCT-15 colon
[4] = system: NCI-H23 lung
[5] = system: HOP-62 NSCLC
[6] = system: OVCAR-5 ovarian
[7] = system: LOX IMVI melanoma
[8] = system: RXF 393 renal
[9] = system: NCI/ADR-RES ovarian
[10] = system: PC-3 prostate

Compound	TGI [1]	TGI [2]	TGI [3]	TGI [4]	TGI [5]	TGI [6]	TGI [7]	TGI [8]	TGI [9]	TGI [10]	GI50 [6]	GI50 [7]	GI50 [1]	GI50 [2]	GI50 [3]	GI50 [4]	GI50 [5]	GI50 [9]	GI50 [10]	GI50 [8]
Cn1c(=O)c2[nH]cnc2n(CC(N)=O)c1=O	> 100 µM	> 100 µM	> 100 µM	> 100 µM	> 100 µM															
COC1C2c3cc4c(cc3CC(C#N)(c3ccccc32)N1C(=O)c1ccccc1)OCO4 (stereo not drawn)	> 100 µM	> 100 µM	> 100 µM	> 100 µM	> 100 µM	> 100 µM	> 100 µM	> 100 µM												
COC1OC(C)C2OC(C)(C)OC2C1OC(C)=O (stereo not drawn)	> 100 µM		> 100 µM	> 100 µM	> 100 µM	> 100 µM	> 100 µM	> 100 µM												
CCOC(=O)C(CNc1ccc(O)cc1)NC(=O)c1ccccc1 (stereo not drawn)	> 100 µM	> 100 µM	> 100 µM	> 100 µM	> 100 µM	> 100 µM	> 100 µM	> 100 µM												
C[C@]12CCNC(=O)C=C1CC[C@@H]1C2CC[C@@]2(C)C1CC[C@@H]2OC(=O)COc1ccc(N(CCCl)CCCl)cc1 (stereo partly drawn)	21.8 µM	44.4 µM	13.1 µM	20.2 µM	22.2 µM	29.5 µM	22.8 µM	18 µM												
O=C1c2ccccc2C(=O)c2c(NCC3CO3)ccc(NCC3CO3)c21 (stereo not drawn)	2.06 µM		> 22.5 µM	8.71 µM	6.96 µM	> 65.8 µM	0.0161 µM	11.8 µM	11.4 µM	9.61 µM										
NCCCCCCNCc1cccc2ccccc12	> 100 µM	> 100 µM	> 100 µM	> 100 µM	> 100 µM	> 100 µM	> 100 µM	> 100 µM												
O=C(N/N=C/c1cc(Cl)cc(Cl)c1[O-])c1ccccc1.O=C(N/N=C/c1cc(Cl)cc(Cl)c1[O-])c1ccccc1.[Co+2]	> 100 µM	> 100 µM	> 100 µM	> 100 µM	> 100 µM	> 100 µM	> 100 µM				46.5 µM	9.19 µM	14.8 µM	26.5 µM	7.22 µM	21 µM	24.8 µM			
C/C=C/COC(=O)CO[N+](=O)[O-]	> 100 µM	> 100 µM	> 100 µM	> 100 µM	> 100 µM	> 100 µM	> 100 µM	> 100 µM												
CCN1C[C@]2(COC)[C@H](O)C[C@H](OC)[C@]34C1[C@H]([C@H](OC)[C@H]23)[C@]1(OC(C)=O)[C@H]2[C@@H](OC(=O)c3ccccc3)[C@](O)(C[C@H]24)[C@@H](OC)[C@@H]1O	> 100 µM	> 100 µM	> 100 µM	> 100 µM		> 100 µM	> 100 µM		> 100 µM	> 100 µM										
Cc1ccc(-c2nc([P+](c3ccccc3)(c3ccccc3)c3ccccc3)c(Nc3ccccc3)o2)cc1	1.84 µM	2.42 µM	1.81 µM	1.28 µM		2.68 µM	1.76 µM	2.34 µM	2.58 µM	1.83 µM	1.31 µM	0.457 µM	0.541 µM	0.808 µM	0.487 µM	0.344 µM		1.11 µM	0.433 µM	0.926 µM
NNC(=O)c1ccc(OCc2nc3ccccc3[nH]2)cc1	> 100 µM	> 100 µM	> 100 µM	> 100 µM		> 100 µM	> 100 µM	> 100 µM	> 100 µM	> 100 µM										
Cc1ccc(C)c(NC(=O)CC2SC(=Nc3ccccc3Cl)NC2=O)c1 (stereo not drawn)	> 100 µM	> 100 µM	> 100 µM	> 100 µM	> 100 µM	> 100 µM		> 100 µM												
CCCCCCCCCCCCCC(=O)CSCCNC(=O)CCNC(=O)[C@@H](O)C(C)(C)COP(=O)(O)OP(=O)(O)OCC1OC(n2cnc3c(N)ncnc32)C(O)C1OP(=O)(O)O (stereo partly drawn)	34.5 µM	33.5 µM	42.7 µM	42 µM	32.6 µM	83.1 µM	37.2 µM	42.3 µM												
CC12CCC3c4cc(Br)c(O)c(Br)c4CCC3C1CCC2O (stereo not drawn)	42 µM	59.4 µM				> 100 µM	63.6 µM	40.5 µM	62.5 µM	> 100 µM										
CCN(CC)CCn1[nH]c2c3ccc(=O)cc3sc3c(NCCN)ccc1c32	8.15 µM	2.69 µM	16.7 µM		2.3 µM	4.87 µM	1.03 µM	3.43 µM												
CCOC(=O)/C=C/C(=O)[C@H](CC(C)C)NC(=O)[C@H](Cc1ccccc1)NC(=O)OCc1ccccc1		27.1 µM	3.78 µM	32.8 µM	29.6 µM	31.1 µM	3.39 µM	3.64 µM	93.1 µM	16.4 µM	14.3 µM	1.76 µM		13.8 µM	1.83 µM	11.3 µM	14.4 µM	12.3 µM	4.39 µM	2.03 µM
CCOC(=O)/C(=C/c1ccc(N(CCC#N)CCC#N)cc1C)NC(=O)/C=C/c1ccccc1	> 100 µM	> 100 µM	> 100 µM	> 100 µM	> 100 µM	> 100 µM	> 100 µM	> 100 µM												
CCOc1ccc(O)cc1[P+](c1ccccc1)(c1ccccc1)c1ccccc1	13.7 µM			5.55 µM	28.9 µM	13.1 µM	13.6 µM	17.9 µM												
COc1ccccc1NS(=O)(=O)c1ccc2oc(SC(C)C)nc2c1	34.5 µM	61.5 µM	> 100 µM	> 100 µM	> 100 µM	> 100 µM	46.4 µM		84.1 µM	45.7 µM	48.9 µM	12.7 µM	15.5 µM	15.6 µM	29.4 µM	8.66 µM	31.2 µM	14.8 µM	12.4 µM	
CC1=C(C)C2(O)C(=C(C)C1=O)/C(=C(/O)c1ccccc1)c1nc3ccccc3n12 (stereo not drawn)	34.6 µM	40 µM	46.5 µM	29.9 µM	48.7 µM		34.6 µM	34.5 µM				16.7 µM	19.3 µM	19.4 µM	19.3 µM	15 µM	21.9 µM			15.3 µM

— PubChem BioAssay (NCI)
